Activity calls are given as the source filed them. For most assays here, no stated cut-off is given here; in the data, actives have a measured EC50 and inactives only a lower limit.
Experiments:
[1] = target: T1, RNA-binding protein pos-1 (Caenorhabditis elegans, UniProt G5EF15); test: inhibitors of POS-1/mex-3 RNA binding, dose response, biochemical, fluorescence polarization (AID 1964);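 further: purified POS-1 fused to maltose binding protein made in E. coli; potency of compounds blocking POS-1 binding to fluorescent RNA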
T1 sequence (G5EF15 whole entry): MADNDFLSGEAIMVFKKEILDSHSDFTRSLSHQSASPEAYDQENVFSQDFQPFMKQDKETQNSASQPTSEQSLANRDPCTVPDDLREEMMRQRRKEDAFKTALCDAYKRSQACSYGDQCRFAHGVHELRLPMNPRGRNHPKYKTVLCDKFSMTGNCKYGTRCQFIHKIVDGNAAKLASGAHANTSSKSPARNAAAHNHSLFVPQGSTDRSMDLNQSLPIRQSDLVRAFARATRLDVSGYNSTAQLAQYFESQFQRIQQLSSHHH

[2] = target: T2, Zinc finger protein mex-5 (Caenorhabditis elegans, UniProt Q9XUB2); test: MEX-5/TCR-2 RNA interaction inhibitors, dose response, biochemical, C. elegans, fluorescence polarization (AID 1960)
T2 sequence (Q9XUB2 whole entry): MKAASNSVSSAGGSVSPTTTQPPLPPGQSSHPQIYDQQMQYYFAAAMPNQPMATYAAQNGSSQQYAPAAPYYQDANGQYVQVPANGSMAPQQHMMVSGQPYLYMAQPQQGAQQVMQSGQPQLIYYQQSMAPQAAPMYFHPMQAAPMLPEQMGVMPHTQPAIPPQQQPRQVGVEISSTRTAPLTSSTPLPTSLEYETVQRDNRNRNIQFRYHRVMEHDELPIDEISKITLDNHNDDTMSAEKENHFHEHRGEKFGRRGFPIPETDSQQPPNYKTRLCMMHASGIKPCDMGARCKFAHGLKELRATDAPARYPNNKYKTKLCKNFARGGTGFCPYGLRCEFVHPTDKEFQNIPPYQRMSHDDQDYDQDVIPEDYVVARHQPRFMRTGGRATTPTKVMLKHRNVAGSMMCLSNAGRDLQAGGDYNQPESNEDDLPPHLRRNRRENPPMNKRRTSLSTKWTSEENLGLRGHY

[3] = target: T3, Polyadenylate-binding protein 1 (Homo sapiens, UniProt P11940); test: PABP1 MLLE–PAM2 binding inhibitor potency, dose response, biochemical, fluorescence polarization, FITC-PAM2 peptide (AID 602259); format: functional; conditions: read-out: IC50_Mean
[4] = target: T3, Polyadenylate-binding protein 1; test: PABP1 MLLE–PAM2 interaction inhibitors, dose response, miRNA deadenylation inhibitor project, biochemical, fluorescence polarization, Cy5-PAM2 peptide, secondary (AID 602260); format: functional; conditions: read-out: IC50_Mean
[5] = Luminescence Cell-Based Dose Confirmation HTS to Identify Inhibitors of Platelet Dense Granule Release. [Related pubchem assays: 1663 (Primary HTS), 1678 (Summary of Project)]; format: functional
[6] = target: Luciferin 4-monooxygenase (Photinus pyralis, UniProt P08659); test: firefly luciferase enzyme inhibitors, dose response, biochemical, luminescence (AID 1891)
[7] = target: T4, Ubiquitin-conjugating enzyme E2 N (Homo sapiens, UniProt P61088); format: functional;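 further: Dose-response confirmation in a TR-FRET assay detecting UBC13-driven polyubiquitin chain formation, inhibition measured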
T4 sequence (P61088 whole entry): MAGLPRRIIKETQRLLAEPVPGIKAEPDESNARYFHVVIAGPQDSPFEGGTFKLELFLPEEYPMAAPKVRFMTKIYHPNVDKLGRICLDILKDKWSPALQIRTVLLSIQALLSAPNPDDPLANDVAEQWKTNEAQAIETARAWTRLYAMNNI

[8] = target: T5, Heat shock factor protein 1 (Mus musculus, UniProt P38532); test: HSF1 potentiators in luciferase reporter cells, confirmation, cell-based, NIH3T3, luminescence, dose retest (AID 435004); format: functional;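 further: stress induced by proteasome inhibitor MG132 added 30 min after compound; luciferase reporter driven by HSF1 response element in NIH3T3 cells; actives raise luminescence as potentiators of the MG132 stress response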
T5 sequence (P38532 whole entry): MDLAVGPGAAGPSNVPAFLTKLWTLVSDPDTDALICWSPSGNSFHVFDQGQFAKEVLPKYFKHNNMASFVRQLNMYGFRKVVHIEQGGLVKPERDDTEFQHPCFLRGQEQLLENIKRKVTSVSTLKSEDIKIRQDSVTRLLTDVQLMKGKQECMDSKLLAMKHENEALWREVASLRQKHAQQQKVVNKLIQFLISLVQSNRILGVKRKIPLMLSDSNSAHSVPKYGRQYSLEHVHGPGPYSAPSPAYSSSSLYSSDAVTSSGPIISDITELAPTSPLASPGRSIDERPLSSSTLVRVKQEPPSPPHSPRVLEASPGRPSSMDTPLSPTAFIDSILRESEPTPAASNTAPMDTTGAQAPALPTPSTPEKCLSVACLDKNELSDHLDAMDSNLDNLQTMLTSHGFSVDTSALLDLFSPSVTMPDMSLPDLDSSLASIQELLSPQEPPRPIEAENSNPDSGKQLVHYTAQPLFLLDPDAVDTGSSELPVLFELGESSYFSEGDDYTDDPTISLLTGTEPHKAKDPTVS

[9] = Luminescence Cell-Based Dose Retest to Confirm Inhibitors of Cancer Stem Cells. [Related pubchem assays (depositor defined):AID2717, AID2721]; format: functional; conditions: Homo sapiens
[10] = tested on: INS1; test: beta cell apoptosis inhibitors, cytokine rescue, dose response, luminescence, retest (AID 449756); format: functional, cell-based; conditions: Rattus norvegicus;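 further: cell death triggered by IL-1 beta plus TNF-alpha plus IFN-gamma mixture; protective hits raise ATP signal compared with cytokine alone wells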
[11] = target: Paired box protein Pax-8 (Homo sapiens, UniProt Q06710); test: inhibitors of PAX8-driven TPO luciferase reporter, dose response, RMG-I cells, cherry-pick (AID 687027); format: functional, cell-based;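 further: luciferase reporter driven by Pax8 target thyroperoxidase promoter measured by SteadyGlo luminescence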
[12] = cells; format: functional, cell-based
[13] = cells; format: functional, cell-based; remark: listed apart in the source
[14] = inhibitors of intracellular T. cruzi replication, confirmation, NIH3T3 host cells, beta-gal luminescence (AID 2044); format: functional, cell-based;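 further: intracellular parasites grown in NIH/3T3 mouse fibroblasts as host cells; luminescent beta-galactosidase reporter signal from transgenic T. cruzi replicating inside host cells; inhibitors lower the luminescence signal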
[15] = cytotoxicity toward NIH3T3 fibroblasts, dose response, counter-screen, cell-based, ATP luminescence, mouse fibroblasts (AID 2010); format: functional;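 further: cells exposed to compound for about 90 hours before reading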
[16] = target: T5, Heat shock factor protein 1; test: inhibition of MG132-induced HSE-luciferase signal, confirmation, cell-based, NIH3T3, luminescence, dose retest (AID 2382); format: functional;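 further: NIH3T3 fibroblasts with HSF1-driven luciferase reporter stressed by proteasome inhibitor MG132; luminescence from HSF1-driven luciferase expression after 8 hours of MG132 stress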

Sequence of Luciferin 4-monooxygenase (P08659 whole entry): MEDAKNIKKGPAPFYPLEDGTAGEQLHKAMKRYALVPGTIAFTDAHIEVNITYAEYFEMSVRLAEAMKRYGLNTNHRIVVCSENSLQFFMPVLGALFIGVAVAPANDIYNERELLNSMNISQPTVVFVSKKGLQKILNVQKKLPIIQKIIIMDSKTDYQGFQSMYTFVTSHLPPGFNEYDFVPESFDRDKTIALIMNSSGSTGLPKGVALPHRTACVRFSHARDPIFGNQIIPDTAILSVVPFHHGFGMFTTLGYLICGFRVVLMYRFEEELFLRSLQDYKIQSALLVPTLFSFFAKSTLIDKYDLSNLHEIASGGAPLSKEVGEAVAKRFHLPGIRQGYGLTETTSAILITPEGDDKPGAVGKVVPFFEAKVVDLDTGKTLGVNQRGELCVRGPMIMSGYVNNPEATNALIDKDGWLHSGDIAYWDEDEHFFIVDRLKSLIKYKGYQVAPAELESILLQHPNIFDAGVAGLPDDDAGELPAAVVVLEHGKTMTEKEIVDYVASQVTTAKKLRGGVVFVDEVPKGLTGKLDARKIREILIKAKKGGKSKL
Sequence of Paired box protein Pax-8 (Q06710 whole entry): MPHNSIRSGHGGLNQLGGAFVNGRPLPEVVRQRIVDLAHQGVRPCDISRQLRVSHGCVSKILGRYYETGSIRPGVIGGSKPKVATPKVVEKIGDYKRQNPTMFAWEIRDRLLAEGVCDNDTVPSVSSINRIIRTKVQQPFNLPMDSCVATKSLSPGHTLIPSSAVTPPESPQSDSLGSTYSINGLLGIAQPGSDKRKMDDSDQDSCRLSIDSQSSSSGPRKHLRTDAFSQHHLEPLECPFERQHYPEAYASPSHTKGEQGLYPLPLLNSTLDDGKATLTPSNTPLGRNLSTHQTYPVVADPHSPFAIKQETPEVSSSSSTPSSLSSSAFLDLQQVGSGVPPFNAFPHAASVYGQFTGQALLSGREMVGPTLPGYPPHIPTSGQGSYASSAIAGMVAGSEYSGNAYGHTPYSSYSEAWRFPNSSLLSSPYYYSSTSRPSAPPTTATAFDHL
T3 sequence (P11940 whole entry): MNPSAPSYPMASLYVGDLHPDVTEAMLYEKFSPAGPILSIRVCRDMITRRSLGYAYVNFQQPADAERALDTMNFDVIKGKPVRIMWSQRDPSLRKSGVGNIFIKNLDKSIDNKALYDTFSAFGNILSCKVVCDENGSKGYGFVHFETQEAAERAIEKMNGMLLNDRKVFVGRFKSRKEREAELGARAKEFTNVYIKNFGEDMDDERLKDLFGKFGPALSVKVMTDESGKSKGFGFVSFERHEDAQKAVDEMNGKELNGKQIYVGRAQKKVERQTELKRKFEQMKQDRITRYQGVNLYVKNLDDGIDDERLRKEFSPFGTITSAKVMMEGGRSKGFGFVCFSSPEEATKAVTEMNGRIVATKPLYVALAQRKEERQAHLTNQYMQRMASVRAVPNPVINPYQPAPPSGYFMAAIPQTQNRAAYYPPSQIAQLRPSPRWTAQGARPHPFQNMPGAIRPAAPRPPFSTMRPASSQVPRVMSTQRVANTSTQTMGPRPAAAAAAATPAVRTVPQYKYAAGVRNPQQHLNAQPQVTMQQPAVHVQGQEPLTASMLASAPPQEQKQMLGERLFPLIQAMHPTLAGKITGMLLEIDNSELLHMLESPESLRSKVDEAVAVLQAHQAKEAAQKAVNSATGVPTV

With `Cc1cc(/C=C2\C(=O)NC(=O)N(C)C2=O)c(C)n1-c1ccc2c(c1)OCO2` the EC50 [1] was > 300 µM (not active) and the EC50 [2] was > 300 µM (not active).
In the case of `CCCCN(C)C(=O)c1cccc(OC2CCN(CC(C)(C)C)CC2)c1`, the EC50 [1] is reported as > 300 µM (not active) and the EC50 [2] is reported as > 300 µM (inconclusive).
With `COc1ccccc1NS(=O)(=O)c1ccc(O)c(NC(S)=NCC2CCCO2)c1` (stereo not given) the IC50 [3] was > 66 µM (inactive) and the IC50 [4] was > 66 µM (inactive).
In the case of `O=C(CCCc1ccccc1)Nc1nnc(C(F)(F)F)s1`, the EC50 [5] is reported as > 112 µM (not active) and the EC50 [6] is reported as > 112 µM (not active).
In the case of `COc1cccc(N(C(=O)c2snc(C(N)=O)c2N)C(C(=O)NCC2CCCO2)c2c[nH]c3ccccc23)c1` (stereo not given), the IC50 [7] is reported as > 20 µM (inactive).
For `C=CCSc1nnc(N2C(=O)C(O)=C(C(=O)c3ccco3)C2c2ccc(F)cc2)s1` (stereo not given), the EC50 [1] was 114 µM (active), the EC50 [2] was 87.6 µM (active) and the EC50 [8] was > 260 µM (inactive).
With `COc1ccc(CNC(=O)c2cnc3cc(C)ccn3c2=O)cc1` the EC50 [1] was > 300 µM (not active) and the EC50 [2] was > 300 µM (not active).
With `O=C(Nc1ccc(-c2csc(Nc3cccc(C(F)(F)F)c3)n2)cc1)c1cc([N+](=O)[O-])cc(C(F)(F)F)c1` the AC50 [9] was 1.4 µM (active) and the AC50 [10] was 7.89 µM (active).
With `O=C(CSCc1ccco1)c1cccs1` the EC50 [5] was > 112 µM (not active) and the EC50 [6] was > 112 µM (not active).
With `CCOc1ccc(NC(O)=C2C(=O)NC(=O)NC2=O)cc1` the EC50 [5] was 9.93 µM (active) and the EC50 [6] was 1.42 µM (active).
For `COc1ccc(N2C(=O)NC(=O)/C(=C/c3ccc4c(c3)Cc3ccccc3-4)C2=O)cc1`, the EC50 [1] was > 300 µM (not active) and the EC50 [2] was > 300 µM (not active).
In the case of `COc1ccc(COCC(O)CN2CCC(CN3C(=O)c4cccc5cccc(c45)C3=O)CC2)cc1OC` (stereo not given), the IC50 [7] is reported as > 20 µM (inactive).
With `CCOc1ccc(N2C(=O)CC(Sc3ccccc3C(=O)O)C2=O)c([N+](=O)[O-])c1` (stereo not given) the IC50 [3] was > 66 µM (inactive) and the IC50 [4] was > 66 µM (inactive).
In the case of `CCCCc1nc2sc3c(O)ncnc3c2c2c1CCCC2`, the EC50 [5] is reported as > 112 µM (not active) and the EC50 [6] is reported as > 112 µM (not active).
For `O=C(c1ccco1)N1CCN(Cc2nc(-c3cccs3)no2)CC1`, the EC50 [5] was > 112 µM (not active) and the EC50 [6] was > 112 µM (not active).
For `C[C@@H]1CCCCO[C@H](CN(C)C(=O)Nc2ccc(C(F)(F)F)cc2)[C@@H](C)CN([C@@H](C)CO)C(=O)c2cc(NS(=O)(=O)c3cccs3)ccc2O1`, the AC50 [11] was 6.63 µM (active).
In the case of `COc1ccccc1C(=O)Oc1ccccc1C(=O)Nc1ccccc1`, the EC50 [12] is reported as > 350 µM (not active) and the EC50 [13] is reported as 16.1 µM (active).
In the case of `COc1ccc(N2C(=O)/C(=C/c3ccc(N(C)C)o3)C(=O)NC2=S)cc1`, the EC50 [1] is reported as > 300 µM (not active) and the EC50 [2] is reported as > 150 µM (inconclusive).
For `Cc1cccn2c(Nc3ccccc3)c(-c3ccccn3)nc12`, the AC50 [10] was 5.84 µM (active).
For `N=C(S)C(c1ccccc1)c1ncc(C(F)(F)F)cc1Cl` (stereo not given), the IC50 [3] was > 66 µM (inactive) and the IC50 [4] was > 66 µM (inactive).
For `N=C(N)NC(=N)Nc1ccc(SC(F)(F)F)cc1`, the AC50 [10] was 1.72 µM (active).
With `Fc1ccc(F)c(C2=NN=C(NCC3CCCO3)SC2)c1` (stereo not given) the IC50 [3] was > 66 µM (inactive) and the IC50 [4] was > 66 µM (inactive).
With `Oc1[nH]c2ccc(Br)cc2c1N=NC(S)=NCC1CCCO1` (stereo not given) the EC50 [14] was 2.17 µM (active), the EC50 [15] was > 60 µM (not active) and the IC50 [7] was > 20 µM (inactive).
In the case of `CC(=O)c1cccc(NC(=O)CSC(=O)c2ccccc2)c1`, the EC50 [12] is reported as > 350 µM (not active) and the EC50 [13] is reported as > 350 µM (not active).
In the case of `CCOc1cc(C2C3=C(CCCC3=O)N(CC(=O)O)C3=C2C(=O)CCC3)ccc1OC`, the IC50 [3] is reported as > 66 µM (inactive) and the IC50 [4] is reported as > 66 µM (inactive).
With `Cc1cc(C)c(O)c(NC(=S)NC(=O)Cc2ccccc2)c1` the IC50 [3] was > 66 µM (inactive) and the IC50 [4] was > 66 µM (inactive).
In the case of `CCCOC(=O)Nc1ccc(C(N)=O)cc1`, the EC50 [5] is reported as > 112 µM (not active) and the EC50 [6] is reported as > 112 µM (not active).
In the case of `COc1ccc(Oc2nc(-c3ccccc3)ncc2S(=O)(=O)c2ccccc2)cc1`, the EC50 [5] is reported as > 112 µM (not active) and the EC50 [6] is reported as > 112 µM (not active).
With `Cc1ccc(CN2[C@@H](CC(C)C)COCCS2(=O)=O)cc1` the EC50 [12] was > 350 µM (not active) and the EC50 [13] was 72.7 µM (active).
In the case of `COC(=O)c1cn(C)c2ccc(S(=O)(=O)N3CCCCC3)cc2c1=O`, the EC50 [12] is reported as > 350 µM (not active) and the EC50 [13] is reported as > 350 µM (not active).
For `O=C(OCCCCN1C(=O)c2ccccc2C1=O)c1ccc(S(=O)(=O)N2CCCC2)cc1`, the EC50 [5] was > 112 µM (not active) and the EC50 [6] was > 112 µM (not active).
For `Cc1ccc(S(=O)(=O)Nc2ccc3c(c2)C(=O)N([C@@H](C)CO)C[C@H](C)[C@@H](CN(C)C(=O)Nc2ccc(C(F)(F)F)cc2)OCCCC[C@H](C)O3)cc1`, the AC50 [11] was 3.14 µM (active).
With `Cc1nnc(N2C(=O)C(O)=C(C(=O)c3ccco3)C2c2cccc3ccccc23)s1` (stereo not given) the EC50 [1] was > 300 µM (not active) and the EC50 [2] was > 300 µM (not active).
In the case of `COc1ccccc1-c1ccc2c(c1)[C@H]1[C@H](CCN1S(=O)(=O)c1ccccc1F)[C@H](CO)N2`, the AC50 [11] is reported as 8.48 µM (active).
With `Cn1c(=O)c2c(ncn2CC(=O)Nc2cccc(S(=O)(=O)Nc3ccccc3F)c2)n(C)c1=O` the EC50 [16] was > 195 µM (not active), the IC50 [3] was > 66 µM (inactive) and the IC50 [4] was > 66 µM (inactive).
With `Cc1ccccc1/N=C1\N=C(N)c2ccccc21` the AC50 [11] was 17.3 µM (active).
For `CC(C)(C)n1nc2c3c(ccc2c1O)C(=O)c1ccccc1C3=O`, the AC50 [10] was 2.98 µM (active).
With `CCOc1c(C=C(C#N)C#N)c2ccccc2n1CC` the EC50 [1] was > 300 µM (not active) and the EC50 [2] was > 300 µM (not active).
In the case of `O=C(Nc1cc(=O)[nH]c2ncnn12)c1ccc(Cl)cc1Cl`, the EC50 [1] is reported as 43.5 µM (inconclusive) and the EC50 [2] is reported as 20.5 µM (inconclusive).
In the case of `O=C(Nc1ccccc1)NC1(C(=O)NCc2ccc3c(c2)OCO3)CCCCC1`, the EC50 [1] is reported as > 300 µM (not active) and the EC50 [2] is reported as > 300 µM (not active).
In the case of `O=C(Nc1cc[n+](-c2nc3ccccc3nc2[N-]S(=O)(=O)c2ccccc2)cc1)c1ccccc1Cl`, the EC50 [1] is reported as > 300 µM (not active) and the EC50 [2] is reported as 32.7 µM (active).
For `Cc1c(N=C(S)NNC(=O)CCC(=O)O)c(=O)n(-c2ccccc2)n1C`, the EC50 [5] was > 112 µM (not active) and the EC50 [6] was > 112 µM (not active).
In the case of `O=C(NCc1nc2ccccc2[nH]1)c1c(F)c(F)c(F)c(F)c1F`, the EC50 [12] is reported as > 350 µM (not active) and the EC50 [13] is reported as > 350 µM (not active).
